For one experiment, the target named is CLR/RAMP3 receptor (Homo sapiens, UniProt O60896+Q16602). Nature of the experiment: cell-based.
In experiment [1] the target is T1, CLR/RAMP1 receptor (Homo sapiens, UniProt O60894+Q16602). To be noted: CLR/RAMP1 versus CLR/RAMP2.
Protocol: (§1) Using a receptor activation assay, the dose-dependent stimulatory response of peptide agonists of the present invention on a CLR/RAMP1 receptor, a CLR/RAMP2, or a CLR/RAMP3 receptor complex was determined. A cell line carrying the recombinant CLR/RAMP1, CLR/RAMP2, or a CLR/RAMP3 receptor was employed in the assay. Peptide agonist activities were tested, in duplicate, at 10 different concentrations, starting with 1.0 μM and serially diluted 3-fold, in DMSO. […] The CLR/RAMP1 cAMP, CLR/RAMP2 arrestin assays, and CLR/RAMP3 cAMP (DiscoveRx, Fremont, Calif.) were used.
(§2) For the analysis of antagonistic activity, the synthetic analogs were pre-incubated with the cells before adding the reference ligand at its EC80.
For experiment [2], the system named is primary human lymphatic endothelia cells (HLEC). Put plainly: HLEC survival in medium with 0.1% FBS, MTS assay. To be noted: 30, 100, and 300 nM, 72 hrs.
Protocol: (§3) The cells were cultured for 72 hrs, and cell viability was assayed with the MTS assay (Promega).
Experiment [3] shares this test system. Put plainly: HLEC proliferation in medium with 2% FBS, MTS assay. To be noted: 30, 100, and 300 nM, 72 hrs. (Formazan colour is commonly taken as a measure of viable cells.)
Protocol: as §3
The next experiment deals with T2, CLR/RAMP2 receptor (Homo sapiens, UniProt O60895+Q16602).
T2 construct: host or cells: CHO-K1 cells
Put plainly: CLR/RAMP2 arrestin receptor activation assay (agonist). The following applies: CHO-K1, read-out: CLR/RAMP 2 Max Activity % of positive control, CHO-K1 cells; % of positive control (ADM). Type of experiment: cell-based.

Experiment [4] deals with T1, CLR/RAMP1 receptor. Nature of the experiment: CLR/RAMP1 cAMP receptor activation assay (agonist). Type of experiment: cell-based. Details: host or cells: 1321N1 cells. To be noted: 1321-N1, read-out: CLR/RAMP 1 Max Activity % of positive control, 1321N1 cells; % of positive control (β-CGRP).
Protocol: as §1

Molecules are shown by their SMILES. pIC50: −log10 of the molar value. “Also recorded” adds a separate entry of the source. Non-standard residues stand in square brackets, D forms with d. Residues, ends and D or L forms follow the SMILES beside them. *: point of attachment. Palmitoyl = CCCCCCCCCCCCCCCC(=O)*; AEEA = NCCOCCOCC(=O)O

Sequence of CLR/RAMP3 receptor (Q16602 23-461): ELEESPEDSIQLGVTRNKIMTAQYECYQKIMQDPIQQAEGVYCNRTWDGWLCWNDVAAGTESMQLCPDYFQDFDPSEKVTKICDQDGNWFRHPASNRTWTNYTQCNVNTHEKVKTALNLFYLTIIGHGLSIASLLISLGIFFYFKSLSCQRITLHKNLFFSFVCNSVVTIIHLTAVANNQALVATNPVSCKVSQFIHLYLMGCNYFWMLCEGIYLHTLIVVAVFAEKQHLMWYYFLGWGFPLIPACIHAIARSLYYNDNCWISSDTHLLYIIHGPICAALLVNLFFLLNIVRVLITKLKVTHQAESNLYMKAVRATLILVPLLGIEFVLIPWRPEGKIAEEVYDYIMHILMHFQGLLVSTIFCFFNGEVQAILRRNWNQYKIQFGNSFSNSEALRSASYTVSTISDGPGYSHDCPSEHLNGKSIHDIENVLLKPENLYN
Sequence of CLR/RAMP3 receptor (O60896 24-148): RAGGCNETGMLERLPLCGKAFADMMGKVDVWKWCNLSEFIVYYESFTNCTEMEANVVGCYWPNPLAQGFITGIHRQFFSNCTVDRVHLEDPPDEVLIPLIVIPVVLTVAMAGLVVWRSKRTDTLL
T1 sequence (Q16602 23-461): as the sequence (Q16602 23-461) above
T1 sequence (O60894 27-148): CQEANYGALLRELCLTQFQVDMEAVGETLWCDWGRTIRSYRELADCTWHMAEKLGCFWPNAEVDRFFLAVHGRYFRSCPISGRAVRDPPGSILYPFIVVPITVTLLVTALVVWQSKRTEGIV
T2 sequence (Q16602 23-461): as the sequence (Q16602 23-461) above
T2 sequence (O60895 43-175): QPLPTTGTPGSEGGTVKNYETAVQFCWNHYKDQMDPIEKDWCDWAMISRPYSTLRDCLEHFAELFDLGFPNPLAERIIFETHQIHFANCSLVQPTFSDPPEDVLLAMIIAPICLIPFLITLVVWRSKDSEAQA
Protocol for CLR/RAMP3 receptor: as §1, §2

`CCCCCCCCCCCCCCCC(=O)N[C@@H](CCCCN)C(=O)N[C@H](C(=O)N[C@@H](CCC(N)=O)C(=O)N[C@@H](CCCCN)C(=O)N[C@@H](CC(C)C)C(=O)N[C@@H](C)C(=O)N[C@@H](Cc1c[nH]cn1)C(=O)N[C@@H](CCC(N)=O)C(=O)N[C@H](C(=O)N[C@@H](Cc1ccc(O)cc1)C(=O)N[C@@H](CCC(N)=O)C(=O)N[C@@H](Cc1ccccc1)C(=O)N[C@H](C(=O)N[C@@H](CC(=O)O)C(=O)N[C@@H](CCCCN)C(=O)N[C@@H](CC(=O)O)C(=O)N[C@H](C(=O)N[C@@H](C)C(=O)N1CCC[C@H]1C(=O)N[C@@H](CCCNC(=N)N)C(=O)N[C@@H](CO)C(=O)N[C@@H](CCCCN)C(=O)N[C@H](C(=O)N[C@@H](CO)C(=O)N1CCC[C@H]1C(=O)N[C@@H](CCC(N)=O)C(=O)NCC(=O)N[C@@H](Cc1ccc(O)cc1)C(N)=O)[C@@H](C)CC)C(C)C)[C@@H](C)O)[C@@H](C)CC)C(C)C` [SEQ ID NO: 119] showed a pIC50 against CLR/RAMP3 receptor of 8.04 to 9.10. Also, the “receptor specificity of antagonist” value on CLR/RAMP1 receptor [1] is recorded as “CLR/RAMP2-specific”.
Regarding `CC[C@H](C)[C@H](NC(=O)[C@H](CCC(N)=O)NC(=O)[C@H](Cc1c[nH]cn1)NC(=O)[C@H](C)NC(=O)[C@H](CC(C)C)NC(=O)[C@H](CCCCN)NC(=O)[C@H](CCC(N)=O)NC(=O)[C@@H](NC(=O)[C@@H](NC(=O)[C@@H]1CSSC[C@H](NC(=O)CNC(=O)[C@H](Cc2ccccc2)NC(=O)[C@H](CO)NC(=O)[C@H](CCCNC(=N)N)NC(=O)[C@H](CC(C)C)NC(=O)CNC(=O)[C@H](CCC(N)=O)NC(=O)[C@H](Cc2ccccc2)NC(=O)[C@H](CC(N)=O)NC(=O)[C@H](CC(N)=O)NC(=O)[C@H](CCSC)NC(=O)[C@H](CO)NC(=O)[C@H](CCC(N)=O)NC(=O)[C@H](CCCNC(=N)N)NC(=O)[C@H](Cc2ccc(O)cc2)NC(C)=O)C(=O)N[C@@H](CCCNC(=N)N)C(=O)N[C@@H](Cc2ccccc2)C(=O)NCC(=O)N[C@@H]([C@@H](C)O)C(=O)N1)[C@@H](C)O)C(C)C)C(=O)N[C@@H](Cc1ccc(O)cc1)C(=O)N[C@@H](CCC(N)=O)C(=O)N[C@@H](Cc1ccccc1)C(=O)N[C@H](C(=O)N[C@@H](CC(=O)O)C(=O)N[C@@H](CCCCN)C(=O)N[C@@H](CC(=O)O)C(=O)N[C@@H](CCCCN)C(=O)N[C@@H](CC(=O)O)C(=O)N[C@@H](CC(N)=O)C(=O)N[C@H](C(=O)N[C@@H](C)C(=O)N1CCC[C@H]1C(=O)N[C@@H](CCCNC(=N)N)C(=O)N[C@@H](CO)C(=O)N[C@@H](CCCCN)C(=O)N[C@H](C(=O)N[C@@H](CO)C(=O)N1CCC[C@H]1C(=O)N[C@@H](CCC(N)=O)C(=O)NCC(=O)N[C@@H](Cc1ccc(O)cc1)C(N)=O)[C@@H](C)CC)C(C)C)[C@@H](C)O` [SEQ ID NO: 54, reference compound], the “HLEC survival (in words)” value in experiment [2] is on record as “minimal effects; also recorded: negligible effects”. Also, the “HLEC proliferation (in words)” value in experiment [3] is “minimal effects; also recorded: negligible effects”.
In turn, `CCCCCCCCCCCCCCCC(=O)NCCCC[C@H](NC(=O)COCCOCCN)C(=O)N[C@H](C(=O)N[C@@H](CCC(N)=O)C(=O)N[C@@H](CCCCN)C(=O)N[C@@H](CC(C)C)C(=O)N[C@@H](C)C(=O)N[C@@H](Cc1c[nH]cn1)C(=O)N[C@@H](CCC(N)=O)C(=O)N[C@H](C(=O)N[C@@H](Cc1ccc(O)cc1)C(=O)N[C@@H](CCC(N)=O)C(=O)N[C@@H](Cc1ccccc1)C(=O)N[C@H](C(=O)N[C@@H](CC(=O)O)C(=O)N[C@@H](CCCCN)C(=O)N[C@@H](CC(=O)O)C(=O)N[C@@H](CCCCN)C(=O)N[C@@H](CC(=O)O)C(=O)N[C@@H](CC(N)=O)C(=O)N[C@@H](CO)C(=O)N[C@@H](C)C(=O)N1CCC[C@H]1C(=O)N[C@H](C(=O)N[C@@H](CC(=O)O)C(=O)N1CCC[C@H]1C(=O)N[C@@H](CO)C(=O)N[C@@H](CO)C(=O)N1CCC[C@H]1C(=O)N[C@@H](Cc1c[nH]cn1)C(=O)N[C@@H](CO)C(=O)N[C@@H](Cc1ccc(O)cc1)C(N)=O)C(C)C)[C@@H](C)O)[C@@H](C)CC)C(C)C` [SEQ ID NO: 78] (H-[AEEA]K(Palmitoyl)VQKLAHQIYQFTDKDKDNSAPVDPSSPHSY-NH2) gave a pIC50 against CLR/RAMP3 receptor of 8.04 to 9.10.
Take `CC[C@H](C)[C@H](NC(=O)[C@H](CCC(N)=O)NC(=O)[C@H](Cc1c[nH]cn1)NC(=O)[C@H](C)NC(=O)[C@H](CC(C)C)NC(=O)[C@H](CCCCN)NC(=O)[C@H](CCC(N)=O)NC(=O)[C@@H](NC(=O)[C@@H](NC(=O)[C@@H]1CSSC[C@H](NC(=O)CNC(=O)[C@H](Cc2ccccc2)NC(C)=O)C(=O)N[C@@H](CCCNC(=N)N)C(=O)N[C@@H](Cc2ccccc2)C(=O)NCC(=O)N[C@@H]([C@@H](C)O)C(=O)N1)[C@@H](C)O)C(C)C)C(=O)N[C@@H](Cc1ccc(O)cc1)C(=O)N[C@@H](CCC(N)=O)C(=O)N[C@@H](Cc1ccccc1)C(=O)N[C@H](C(=O)N[C@@H](CC(=O)O)C(=O)N[C@@H](CCCCN)C(=O)N[C@@H](CC(=O)O)C(=O)N[C@@H](CCCCN)C(=O)N[C@@H](CC(=O)O)C(=O)N[C@@H](CC(N)=O)C(=O)N[C@H](C(=O)N[C@@H](C)C(=O)N1CCC[C@H]1C(=O)N[C@@H](CCCNC(=N)N)C(=O)N[C@@H](CO)C(=O)N[C@@H](CCCCN)C(=O)N[C@H](C(=O)N[C@@H](CO)C(=O)N1CCC[C@H]1C(=O)N[C@@H](CCC(N)=O)C(=O)NCC(=O)N[C@@H](Cc1ccc(O)cc1)C(N)=O)[C@@H](C)CC)C(C)C)[C@@H](C)O` [SEQ ID NO: 53, reference compound]: the results for the Emax on CLR/RAMP2 receptor and on CLR/RAMP1 receptor [4] were 102% and 69%, respectively. In addition, the “HLEC survival (in words)” value in experiment [2] was “minimal effects; also recorded: negligible effects”. Moreover, in experiment [3], the “HLEC proliferation (in words)” value is recorded as “minimal effects; also recorded: negligible effects”.
On CLR/RAMP3 receptor, `CCCCCCCCCCCCCCCC(=O)N[C@@H](CCCCN)C(=O)N[C@H](C(=O)N[C@@H](CCC(N)=O)C(=O)N[C@@H](CCCCN)C(=O)N[C@@H](CC(C)C)C(=O)N[C@@H](C)C(=O)N[C@@H](Cc1c[nH]cn1)C(=O)N[C@@H](CCC(N)=O)C(=O)N[C@H](C(=O)N[C@@H](CO)C(=O)N[C@@H](C)C(=O)N1CCC[C@H]1C(=O)N[C@H](C(=O)N[C@@H](CC(=O)O)C(=O)N1CCC[C@H]1C(=O)N[C@@H](CO)C(=O)N[C@@H](CO)C(=O)N1CCC[C@H]1C(=O)N[C@@H](Cc1c[nH]cn1)C(=O)N[C@@H](CO)C(=O)N[C@@H](Cc1ccc(O)cc1)C(N)=O)C(C)C)[C@@H](C)CC)C(C)C` [SEQ ID NO: 123] showed a pIC50 of 8.04 to 9.10.
On CLR/RAMP3 receptor, `CCCCCCCCCCCCCCCC(=O)NCCCC[C@H](NC(=O)COCCOCCN)C(=O)N[C@H](C(=O)N[C@@H](CCC(N)=O)C(=O)N[C@@H](CCCCN)C(=O)N[C@@H](CC(C)C)C(=O)N[C@@H](C)C(=O)N[C@@H](Cc1c[nH]cn1)C(=O)N[C@@H](CCC(N)=O)C(=O)N[C@H](C(=O)N[C@@H](Cc1ccc(O)cc1)C(=O)N[C@@H](CO)C(=O)N[C@@H](C)C(=O)N1CCC[C@H]1C(=O)N[C@H](C(=O)N[C@@H](CC(=O)O)C(=O)N1CCC[C@H]1C(=O)N[C@@H](CO)C(=O)N[C@@H](CO)C(=O)N1CCC[C@H]1C(=O)N[C@@H](Cc1c[nH]cn1)C(=O)N[C@@H](CO)C(=O)N[C@@H](Cc1ccc(O)cc1)C(N)=O)C(C)C)[C@@H](C)CC)C(C)C` [SEQ ID NO: 114] showed a pIC50 of 8.04 to 9.10. Also, the “receptor specificity of antagonist” value on CLR/RAMP1 receptor [1] is listed as “CLR/RAMP1-specific”.

As a reminder, the pIC50 is the negative decadic logarithm of the IC50, by convention in mol/L. A high value points to a small IC50.
